Laboratory results published in patent US10336697B2, “Spiro[cyclobutane-1,3′-indolin]-2′-one derivatives as bromodomain inhibitors” (Orion Corporation, priority 2015, dated 2019).
pIC50: −log10 of the molar value.

Molecular target: Bet BRD4 full length bromo-domain protein (Homo sapiens, UniProt O60885)
Test: Bet bromodomain TR-FRET assay (displacement of acetyl histone peptide)
Format: binding
Details: Bet BRD4 full length bromodomain protein, 300 nM acetyl histone peptide substrate, read-out: IC50

| pIC50 | SMILES |
| --- | --- |
| > 6.22 | CN1CCCC(Nc2cc(NS(=O)(=O)c3ccc(F)cc3F)cc3c2NC(=O)C32CCC2)C1 (single isomer, unassigned) [Compound 34, 2,4-Difluoro-N-(7′-((1-methylpiperidin-3-yl)amino)-2′-oxospiro[cyclobutane-1,3′-indolin]-5′-yl)benzenesulfonamide] |
| 6.00 to 6.22 | CN1CCCC(Nc2cc(NS(=O)(=O)c3ccc(F)cc3F)cc3c2NC(=O)C32CCC2)C1 (single isomer, unassigned) [Compound 35, 2,4-Difluoro-N-(7′-((1-methylpiperidin-3-yl)amino)-2′-oxospiro[cyclobutane-1,3′-indolin]-5′-yl)benzenesulfonamide] |
| 6.00 to 6.22 | O=C(NC1CCCNC1)c1cc(NS(=O)(=O)c2ccc(F)cc2F)cc2c1NC(=O)C21CCC1 (single isomer, unassigned) [Compound 67, 5′-(2,4-Difluorophenylsulfonamido)-2′-oxo-N-(piperidin-3-yl)spiro[cyclobutane-1,3′-indoline]-7′-carboxamide] |
| > 6.22 | O=C(NC1CCCNC1)c1cc(NS(=O)(=O)c2ccc(F)cc2F)cc2c1NC(=O)C21CCC1 (single isomer, unassigned) [Compound 68, 5′-(2,4-Difluorophenylsulfonamido)-2′-oxo-N-(piperidin-3-yl)spiro[cyclobutane-1,3′-indoline]-7′-carboxamide] |
| > 6.22 | COc1ccccc1S(=O)(=O)Nc1cc(C(C)c2ccccc2)c2c(c1)C1(CCC1)C(=O)N2 (single isomer, unassigned) [Compound 114, 2-Methoxy-N-(2′-oxo-7′-(1-phenylethyl)spiro [cyclobutane-1,3′-indolin]-5′-yl)benzenesulfonamide] |
| 6.00 to 6.22 | COc1ccccc1S(=O)(=O)Nc1cc(C(C)c2ccccc2)c2c(c1)C1(CCC1)C(=O)N2 (single isomer, unassigned) [Compound 115, 2-Methoxy-N-(2′-oxo-7′-(1-phenylethyl)spiro [cyclobutane-1,3′-indolin]-5′-yl)benzenesulfonamide] |
| 6.00 to 6.22 | COc1ccccc1S(=O)(=O)Nc1cc(OC(C)c2ccccn2)c2c(c1)C1(CCC1)C(=O)N2 (single isomer, unassigned) [Compound 150, 2-Methoxy-N-(2′-oxo-7′-(1-(pyridin-2-yl)ethoxy)spiro[cyclobutane-1,3′-indolin]-5′-yl)benzenesulfonamide] |
| > 6.22 | COc1ccccc1S(=O)(=O)Nc1cc(OC(C)c2ccccn2)c2c(c1)C1(CCC1)C(=O)N2 (single isomer, unassigned) [Compound 151, 2-Methoxy-N-(2′-oxo-7′-(1-(pyridin-2-yl)ethoxy)spiro[cyclobutane-1,3′-indolin]-5′-yl)benzenesulfonamide] |
| > 6.22 | COc1ccccc1S(=O)(=O)Nc1cc(OC(C)c2cccnc2)c2c(c1)C1(CCC1)C(=O)N2 (single isomer, unassigned) [Compound 152, 2-methoxy-N-(2′-oxo-7′-(1-(pyridin-3-yl)ethoxy)spiro[cyclobutane-1,3′-indolin]-5′-yl)benzenesulfonamide] |
| 6.00 to 6.22 | CC(Oc1cc(NS(=O)(=O)c2ccc(Cl)cc2F)cc2c1NC(=O)C21CCC1)c1ccccn1 (single isomer, unassigned) [Compound 155, 4-Chloro-2-fluoro-N-(2′-oxo-7′-(1-(pyridin-2-yl)ethoxy)spiro[cyclobutane-1,3′-indolin]-5′-yl)benzenesulfonamide] |
| > 6.22 | CC(Oc1cc(NS(=O)(=O)c2ccc(Cl)cc2F)cc2c1NC(=O)C21CCC1)c1ccccn1 (single isomer, unassigned) [Compound 156, 4-Chloro-2-fluoro-N-(2′-oxo-7′-(1-(pyridin-2-yl)ethoxy)spiro[cyclobutane-1,3′-indolin]-5′-yl)benzenesulfonamide] |
| < 6.00 | COc1ccccc1S(=O)(=O)Nc1cc(C(C)C2CCCN(C)C2)c2c(c1)C1(CCC1)C(=O)N2 (single isomer, unassigned) [Compound 173, 2-Methoxy-N-(7′-(1-(1-methylpiperidin-3-yl)ethyl)-2′-oxospiro[cyclobutane-1,3′-indolin]-5′-yl)benzenesulfonamide] |
| > 6.22 | COc1ccccc1S(=O)(=O)Nc1cc(OC2CCN(C)CC2F)c2c(c1)C1(CCC1)C(=O)N2 (single isomer, unassigned) [compound 191, N-(7′-((3-fluoro-1-methylpiperidin-4-yl)oxy)-2′-oxospiro[cyclobutane-1,3′-indolin]-5′-yl)-2-methoxybenzenesulfonamide] |
| > 6.22 | O=C1Nc2c(-c3cccc(O)c3)cc(NS(=O)(=O)c3ccc(F)cc3F)cc2C12CCC2 [Compound 1, 2,4-difluoro-N-(7′-(3-hydroxyphenyl)-2′-oxospiro[cyclobutane-1,3′-indolin]-5′-yl)benzenesulfonamide] |
| 6.00 to 6.22 | COc1cc(-c2cc(NS(=O)(=O)c3ccc(F)cc3F)cc3c2NC(=O)C32CCC2)ccn1 [Compound 2, 2,4-Difluoro-N-(7′-(2-methoxypyridin-4-yl)-2′-oxospiro [cyclobutane-1,3′-indolin]-5′-yl)benzenesulfonamide] |
| 6.00 to 6.22 | COc1ccc(-c2cc(NS(=O)(=O)c3ccc(F)cc3F)cc3c2NC(=O)C32CCC2)cn1 [Compound 3, 2,4-Difluoro-N-(7′-(6-methoxypyridin-3-yl)-2′-oxospiro [cyclobutane-1,3′-indolin]-5′-yl)benzenesulfonamide] |

| pIC50 | SMILES |
| --- | --- |
| > 6.22 | O=C1NCCc2ccc(-c3cc(NS(=O)(=O)c4ccc(F)cc4F)cc4c3NC(=O)C43CCC3)cc21 [Compound 4, 2,4-Difluoro-N-(2′-oxo-7′-(1-oxo-1,2,3,4-tetrahydroisoquinolin-7-yl)spiro[cyclobutane-1,3′-indolin]-5′-yl)benzenesulfonamide] |
| > 6.22 | Cn1cnc2ccc(-c3cc(NS(=O)(=O)c4ccc(F)cc4F)cc4c3NC(=O)C43CCC3)cc21 [Compound 5, 2,4-Difluoro-N-(7′-(1-methyl-1H-benzo[d]imidazol-6-yl)-2′-oxospiro[cyclobutane-1,3′-indolin]-5′-yl)benzene sulphonamide] |
| 6.00 to 6.22 | CN1CCc2ccc(-c3cc(NS(=O)(=O)c4ccc(F)cc4F)cc4c3NC(=O)C43CCC3)cc2C1=O [Compound 6, 2,4-Difluoro-N-(7′-(2-methyl-1-oxo-1,2,3,4-tetrahydroisoquinolin-7-yl)-2′-oxospiro[cyclobutane-1,3′-indolin]-5′-yl)benzenesulfonamide] |
| 6.00 to 6.22 | O=C1Nc2c(-c3ccc4cn[nH]c4c3)cc(NS(=O)(=O)c3ccc(F)cc3F)cc2C12CCC2 [Compound 7, N-(7′-(1H-indazol-6-yl)-2′-oxospiro[cyclobutane-1,3′-indolin]-5′-yl)-2,4-difluorobenzenesulfonamide] |
| 6.00 to 6.22 | O=C1Nc2c(-c3ccc4nc[nH]c4c3)cc(NS(=O)(=O)c3ccc(F)cc3F)cc2C12CCC2 [Compound 8, N-(7′-(1H-benzo[d]imidazol-6-yl)-2′-oxospiro[cyclobutane-1,3′-indolin]-5′-yl)-2,4-difluorobenzenesulfonamide] |
| > 6.22 | COc1ccccc1S(=O)(=O)Nc1cc(Cc2ccccc2F)c2c(c1)C1(CCC1)C(=O)N2 [Compound 9, N-(7′-(2-fluorobenzyl)-2′-oxospiro[cyclobutane-1,3′-indolin]-5′-yl)-2-methoxybenzenesulfonamide] |
| > 6.22 | COc1ccccc1S(=O)(=O)Nc1cc(Cc2cccc(F)c2)c2c(c1)C1(CCC1)C(=O)N2 [Compound 10, N-(7′-(3-fluorobenzyl)-2′-oxospiro[cyclobutane-1,3′-indolin]-5′-yl)-2-methoxybenzenesulfonamide] |
| > 6.22 | C=C(c1ccccc1)c1cc(NS(=O)(=O)c2ccccc2OC)cc2c1NC(=O)C21CCC1 [Compound 11, 2-Methoxy-N-(2′-oxo-7′-(1-phenylvinyl)spiro[cyclobutane-1,3′-indolin]-5′-yl)benzenesulfonamide] |
| > 6.22 | COc1ccccc1S(=O)(=O)Nc1cc(N)c2c(c1)C1(CCC1)C(=O)N2 [Compound 12, N-(7′-amino-2′-oxospiro[cyclobutane-1,3′-indolin]-5′-yl)-2-methoxy-benzenesulfonamide] |
| > 6.22 | COc1ccccc1S(=O)(=O)Nc1cc(NCC2CC2)c2c(c1)C1(CCC1)C(=O)N2 [Compound 13, N-(7′-((cyclopropylmethyl)amino)-2′-oxospiro[cyclobutane-1,3′-indolin]-5′-yl)-2-methoxybenzenesulfonamide] |
| > 6.22 | C=CCCNc1cc(NS(=O)(=O)c2ccccc2OC)cc2c1NC(=O)C21CCC1 [Compound 14, N-(7′-(but-3-en-1-ylamino)-2′-oxospiro[cyclobutane-1,3′-indolin]-5′-yl)-2-methoxybenzenesulfonamide] |
| > 6.22 | Nc1cc(NS(=O)(=O)c2ccc(F)cc2F)cc2c1NC(=O)C21CCC1 [Compound 15, N-(7′-amino-2′-oxospiro[cyclobutane-1,3′-indolin]-5′-yl)-2,4-difluoro-benzenesulfonamide] |
| > 6.22 | CN1CCCC(Nc2cc(NS(=O)(=O)c3ccc(F)cc3F)cc3c2NC(=O)C32CCC2)C1 (centres unmarked) [Compound 16, 2,4-difluoro-N-(7′-((1-methylpiperidin-3-yl)amino)-2′-oxospiro [cyclobutane-1,3′-indolin]-5′-yl)benzenesulfonamide] |
| > 6.22 | CN1CCC(Nc2cc(NS(=O)(=O)c3ccc(F)cc3F)cc3c2NC(=O)C32CCC2)CC1 [Compound 17, 2,4-Difluoro-N-(7′-((1-methylpiperidin-4-yl)amino)-2′-oxospiro[cyclobutane-1,3′-indolin]-5′-yl)benzenesulfonamide] |
| > 6.22 | O=C1Nc2c(NC3CCOCC3)cc(NS(=O)(=O)c3ccc(F)cc3F)cc2C12CCC2 [Compound 18, 2,4-Difluoro-N-(2′-oxo-7′-((tetrahydro-2H-pyran-4-yl)amino)spiro[cyclobutane-1,3′-indolin]-5′-yl)benzenesulfonamide] |

| SMILES | pIC50 |
| --- | --- |
| O=C1Nc2c(NC3CN4CCC3CC4)cc(NS(=O)(=O)c3ccc(F)cc3F)cc2C12CCC2 (centres unmarked) [Compound 19, 2,4-Difluoro-N-(2′-oxo-7′-(quinuclidin-3-ylamino)spiro[cyclobutane-1,3′-indolin]-5′-yl)benzenesulfonamide] | > 6.22 |
